Results as given in patent publication US20240082342A1, “PEPTIDE THERAPEUTICS FOR INCREASING LUNG CELL VIABILITY” (BOARD OF REGENTS, THE UNIVERSITY OF TEXAS SYSTEM, priority 2018, published 2024).
Entries after “also recorded” stand apart in the source; their conditions may differ.

What was measured:
[1] = tested on: A2Cs of miR-34a^fl/fl and miR-34a^cKO mice; assay: Tobacco smoke exposure of miR-34a fl/fl and miR-34a cKO mice; assay type: in vivo, mouse; details: for telomere shortening (qPCR): 20 weeks TS; for telomerase enzyme activity: TS
Protocol: (§1) To analyze the effect of cigarette smoke, mice were exposed to passive smoke from 40 research cigarettes over a 2-hour period once (2 h) or twice (4 h) daily for 5 days/week for 20 weeks (˜90 mg/m^3 total solid particulates) using a mechanical smoking chamber (Teague Enterprises, Davis, CA). Control mice were exposed to ambient air. At the 18th week, peptide treatment at a dosage of 30 μg/20 g body weight was initiated and continued on a daily basis for the next 14 days. At the end of the experiment, the mice were euthanized and used for the experiments.
(§2) To test the effect of chronic TS exposure induced lung injury, these mice were exposed to passive TS from 40 research cigarettes over a 4 h period 5 days/week for 20 weeks (˜90 mg/m3 total solid particulates) using a mechanical smoking chamber (Teague Enterprises, Davis, CA) as described earlier. (Bhandary et al, 2015). Control mice were kept in ambient air. After sixteen weeks of daily passive TS exposure, mice with TS exposure injury were treated with CSP7 at a dosage of 1.5 mg/kg body weight daily 5 days/week for the next four weeks. These mice were continued with daily exposure of 4 h of TS during CSP7 treatment. At the end of the experiment (after 20 weeks of TS exposure), the mice were euthanized, and lungs were utilized for further analyses. To expand the local delivery options of CSP7 to directly treat the damaged lung by air-jet milling for dry powder inhalation (DPI). Mice exposed to TSE were treated with CSP7 using a rotating brush generator for 15 min daily for 7 days. Fourteen days later, BLM mice were subjected to daily inhalation of micronized CSP7 (0.05 mg/kg/d) DP through air-jet-milling for seven consecutive days using a rotating brush exposure system. The rotating brush exposure system gave a consistent minimal chamber concentration of 0.1 mg/L. In order to match dosing of DP inhalation, animal exposure times were adjusted to approximately 15 minutes and an estimated dose of 0.05 mg/kg/d or 1.00 microgram/lung was administered.
Inducible conditional knockout (miR-34a^cKO) mice lacking miR-34a expression in A2ECs were generated by crossing miR-34a^fl/fl mice with SP-C^Cre/mTmG mice (FIG. 62A). RNA from A2ECs of miR-34a^fl/fl or miR-34a^cKO mice treated with tamoxifen were analyzed for miR-34a. […] After 20 weeks, A2ECs were isolated from these mice and analyzed for changes in miR-34a. […] A2ECs from miR-34a^fl/fl and miR-34a^cKo mice were next isolated and tested the lysates for changes in p53 and PAI-1 expression, and apoptosis. PTS induced p53 and PAI-1 expression in A2ECs of miR-34a^fl/fl mice. These changes were associated increased of A2EC apoptosis and senescence. […] These mice also resisted A2ECs apoptosis or senescence (FIG. 62C).

AECs from COPD lungs = AECs from COPD lungs treated in vitro for 48 h; assay type: cell-based, human
[2] = tested on: AT2 cells from COPD lung tissues; assay: AT2 cells isolated from COPD lung tissues treated in vitro; assay type: cell-based, human
Protocol: Ex vivo studies using human lung tissues without patient identity was approved by the Institutional (UTHSCT) Review Board (IRB) through exempt protocol #12-003. nL and COPD tissues (n=4-5) were treated with or without CSP7 for 72 h ex vivo as described previously (Marudamuthu et al, 2019). Total protein and RNA extracted from the lung tissues were analyzed by Western blotting and qPCR for MUC5AC protein and mRNA, respectively. In separate experiments, AT2 cells isolated from nL and COPD lungs were treated with CSP7 or CP and immunoblotted for changes in senescence or apoptosis, p53, PAI-1 and SP-C expression. Similarly, nL and COPD tissues were treated with or without CSP7 or CP for 72 h ex vivo and AT2 cells isolated from these tissues were analyzed for senescence or apoptosis, p53, PAI-1 and SP-C.

A2Cs of uPA^−/− mice = assay: Tobacco smoke or repeated bleomycin exposure of uPA-/- mice; assay type: in vivo, mouse
Protocol: as §1
To analyze the effect of BLM, mice were exposed to BLM (40 μg/20 g body weight) once per two week for 16 weeks. Control mice were exposed to normal saline. At 14th week the peptide treatment at a dosage of 30 μg/20 g body weight was initiated and continued on a daily basis for the next 14 days. At the end of the experiment, the mice were euthanized and used for the experiments.
as §2
To evaluate the effect of CSP7 against chronic BLM-induced PF, the mice were exposed to BLM (40 μg/20 g body weight) once every two weeks for 16 weeks as described elsewhere. (Tiwari et al, 2016). Control mice were exposed to normal saline. Fourteen weeks later the CSP7 at a dosage of 1.5 mg/kg body weight was administered by IP injection and continued daily basis for the next two weeks as described elsewhere. (Tiwari et al, 2016; Shetty et al, 2008b). At the end of the experiment, the mice were euthanized and lung tissues and isolated A2Cs from the extracted lung tissues were used for further analysis.

[3] = AT2 cells from COPD tissue, in vitro

## FTTFTVT (listed as Homo sapiens) [CSP7, heptapeptide fragment of the caveolin-1 scaffolding domain peptide CSP]
[1]; WT or miR-34a^fl/fl mice, 20 weeks PTS
  miR-34a expression in A2ECs (qRT-PCR): reduced miR-34a expression
[1]; WT or miR-34a^fl/fl mice
  telomere shortening (qPCR): protected from telomere shortening; also recorded: significant protection against TS-induced telomere shortening
[1]; miR-34a^cKO mice, 20 weeks PTS
  miR-34a expression in A2ECs: minimal effect
[1]; miR-34a^cKO mice
  telomere shortening (qPCR): minimal effect
  telomerase enzyme activity: did not upregulate telomerase activity; also recorded: limited effects on baseline telomerase activity
[1]; miR-34a^fl/fl mice, PTS
  p53, PAI-1, A2EC apoptosis and senescence: inhibited p53, PAI-1 and A2EC apoptosis and senescence
[1]; miR-34a^fl/fl mice
  telomerase enzyme activity: significant upregulation; also recorded: reversed
AECs from COPD lungs
  CIP2A mRNA: significant suppression of CIP2A mRNA
  MUC5AC, HDAC6, FOXA3, CAV1 and FOXA2 mRNA (qPCR): reversed by CSP7 treatment; also recorded: significantly suppressed
  co-localization of MUC5AC/HDAC6 and Ac-Tub/LC3 (immunofluorescence): co-localization was reversed
  number of ciliated AECs and cilia length: restored
AECs from COPD lungs; 6 h
  acridine orange staining of acidic vesicles (late autophagic vacuoles): reversed by CSP7; also recorded: marked reduction in red fluorescence
AECs from COPD lungs; 48 h
  Cav1 mRNA (qPCR): reversed
[2]; [3]
  SP-C level: restored baseline SP-C level
  p53 and apoptosis: marked suppression of p53 and apoptosis
[2]; subjects without COPD
  response of AT2 cells from nL tissues: failed to respond to CSP7 treatment
A2Cs of uPA^−/− mice; uPA-/- mice, 8×BLM PF
  p53, ACp53, S15p53, apoptosis, senescence, PAI-1, SIAH1/2, TRF1, TRF2, PNUTS, TERT (Western blot): minimal effect
  telomerase enzyme activity (trapeze): failed to restore
  telomere length (qPCR): failed to restore telomere length
A2Cs of uPA^−/− mice; uPA-/- mice, 20 weeks TS
  telomere shortening (qPCR): failed to respond to CSP7 treatment
A2Cs of uPA^−/− mice; uPA-/- mice, 20 weeks smoke or repeated BLM, vs CP
  telomere shortening: did not show significant difference in telomere shortening
A2Cs of uPA^−/− mice; uPA-/- mice, TS
  IHC of lung sections for TRF1: minimal inhibition
  TRF1, TRF2 and TERT expression in A2Cs: no significant change
  p53 modification/induction, active caspase-3, β-galactosidase (Western blot): failed to inhibit post-translational modification or induction of p53, active caspase-3 or β-galactosidase
  telomerase activity: inability of CSP7 to reverse telomere shortening or improve telomerase activity
A2Cs of uPA^−/− mice; uPA-/- mice, smoke or BLM
  activation of p53, caspase-3, β-galactosidase (Western blot): failed to inhibit activation of p53, caspase-3 as well as β-galactosidase
  telomerase enzyme activity (trapeze): did not restore the telomerase enzyme activity
A2Cs of uPA^−/− mice; uPA-/- mice, smoke or BLM, CSP7 vs CP groups
  TRF1, TRF2 and TERT expression: no significant change
A2Cs of uPA^−/− mice; uPA-deficient mice, TS- and 8×BLM-induced lung injury
  p53-induced PAI-1 expression or telomere dysfunction: failed to suppress p53-induced PAI-1 expression or telomere dysfunction

## WGIDKAFFTTSTVTYKWFRY [CP, scrambled control peptide with the same amino acid composition as CSP, reference compound]
[1]; miR-34a^fl/fl mice
  telomerase enzyme activity: little effect
AECs from COPD lungs
  MUC5AC, HDAC6, FOXA3, CAV1 and FOXA2 mRNA (qPCR): continued to exhibit elevated levels of MUC5AC, HDAC6, FOXA3, and CAV1 mRNA with low FOXA2 mRNA
[2]; [3]
  p53 and apoptosis: remained elevated
A2Cs of uPA^−/− mice; uPA-/- mice, TS
  TRF1, TRF2 and TERT expression in A2Cs: no significant change
